Laboratory results: patent US10478431B2, “Methods for treating a cytomegalovirus infection” (priority 2014, dated 2019)
Where a name gives a salt, the structure may show the parent alone.

Experiments:
[1] = test system: clinically derived CMV isolate TB40E; experiment: HCMV TB40E virus replication and spread on epithelial cell monolayers; format: cell-based, human CMV (hCMV); conditions: FIG. 22
Text: (Cells show more CPE with drug treatment and appear more distorted and larger.) Infection at MOI of 1 on confluent epithelial cell monolayers. Images on day 5, post infection.

[2] = test system: IE2 negative feedback (LM2ig "low" cells); experiment: LM2ig "low" drug screen (4 day induction, high throughput flow cytometry); format: cell-based, human CMV (hCMV); conditions: induction period of 4 days, FIG. 9
Experimental: LM2ig “low” cells (˜0% GFP positive before induction) were treated with agents in duplicate for an induction period of 4 days. During this induction period, the cell culture medium was not changed; images were taken every day for 4 days. On the final day, high throughput flow cytometry was carried out on FACS IntelliCyt. Agents tested were: Hoechst 33258, Hoechst 33342, VPA, TSA, TNF-α, hexamethylene bisacetamide (HMBA), phorbol myristate acetate (PMA), neotroposin, distamycin, DAPI, gemcitabine, prednisolone, suberanilohydroxamic acid (SAHA), (2E)-N-hydroxy-3-[4-({[2-(2-methyl-1H-indol-3-yl)ethyl]amino}methyl)phenyl]acrylamide (panobinostat), thapsigargin, JQ1, prostratin, dimizane acetate, pentamidine, or bendamustine.

IE2 = experiment: Quantitative Western blot of IE2; format: cell-based, human CMV (hCMV); conditions: with increasing Hoechst 33258 exposure
Experimental: Cell monolayers were rinsed in PBS buffer, and cells from each well were scraped into 50 μl A of RIPA buffer and stored at −80° C. For analysis, samples were thawed and quantitated for total protein content using a modified Lowry assay (BioRad DC protein assay kit). Equivalent amounts of total protein (10 μg) were added to appropriate volumes of 4× sample loading buffer (50 mM Tris-HCl pH 6.8, 2% sodium docecyl sulfate (SDS), 10% glycerol, 1% beta-mercaptoethanol, 12.5 mM EDTA, and 0.02% bromophenol blue) and heated at 95° C. for 5 minutes. Protein samples were loaded and separated on precast SDS polyacrylamide gel electrophoresis (PAGE) 10% or 7.5% bisacrylamide gels (BioRad). Protein transfer and blot preparation were handled as previously described (Bolovan-Fritts et al., 2004). For detection of protein bands, primary mouse monoclonal antibody against a shared epitope present in IE1 and IE2 at 1:100 (MAB810, Millipore). Beta tubulin was used as a normalization marker, and detected by a primary rabbit anti-beta tubulin antibody (926-42211, LiCor) used at a dilution of 1:2000. The secondary antibody for IE2 detection used was a donkey anti-mouse conjugated to IR dye 800CW (926-32212, LiCor) at a dilution of 1:20,000. […] Blots were scanned using a LiCor Odyssey Infrared Imaging system and software analysis for quantitation.

[3] = test system: DNA CRS target with purified IE2 protein; experiment: Gel shift assay (EMSA) of IE2-CRS; format: binding; conditions: various amounts of BB33258; FIG. 20
Experimental: IE2-MBP expressed in BL21 cells was purified using amylose column, and EMSA was performed for IE2-crs interaction as described in Macias, M. P., Stinski, M. F., 1993. PNAS. 90, 707-711.

[4] = test system: IE2 negative feedback (MIEP-IE2-IRES-GFP construct, LM2ig); experiment: IE2 negative feedback reporter: cells harboring LM2ig (MIEP-IE2-IRES-GFP), GFP by flow cytometry; format: cell-based, human CMV (hCMV)
Experimental: (§1) MRCS fibroblasts and life-extended human foreskin fibroblasts (HFFs) (Bresnahan and Shenk, 2000) were maintained in Dulbecco's Modified Eagle's Medium (DMEM) supplemented with 10% fetal bovine serum (FBS) and 50 U/ml penicillin-streptomycin at 37° C. and 5% CO2 in a humidified incubator. ARPE-19 cells were maintained in a 1:1 mixture of DMEM/F-12 (Mediatech Inc.) with 10% FBS (HyClone) and 50 U/ml Penicillin-Streptomycin (Mediatech Inc.). Cells were treated with a final concentration of 1 mM valproic acid (VPA) (Calbiochem™), resuspended in dimethylsulfoxide, for approximately 24 hours before imaging. Cells were treated with a final concentration of 400 nM TSA (Sigma-Aldrich) resuspended in dimethylsulfoxide, for 20-24 hours, a final concentration of 10 ng/mL TNF-α (Sigma-Aldrich) resuspended in phosphate-buffered saline (PBS), or a final concentration of 1 mM VPA (Calbiochem) for approximately 24 hours before imaging.
(§2) Standard lentiviral cloning was used to create minimal major immediate early (MIE) circuits (Dull et al., 1998). The minimal MIEP-IE2-GFP and MIEP-GFP circuits are driven by a full-length ˜2.5 kb MIE promoter-enhancer (MIEP) that spans the sequence from the MIEP modulator at the 5′ edge to the junction of immediate early (IE) exons 1 and 2. The MIEP was polymerase chain reaction (PCR)-cloned from AD169 into pLEIGW in place of the EF1a promoter. This full-length MIEP drives an IE2-IRES-GFP or mCherry-IRES-GFP cassette. IE2 was cloned from pRSV-IE86 (a gift from Jay Nelson). ARPE-19 cells were infected and fluorescence-activated cell sorter (FACS) sorted for green fluorescent protein (GFP) fluorescence to create stably expressing cell lines. Cells were treated with Trichostatin-A (TSA) for 17 hours, and GFP expression was quantified by flow cytometry. Live cells were gated by forward-versus-side scattering on a FacsCalibur™ cytometer (BD Biosciences) and mean fluorescence intensity recorded. At least 20,000 live cells were recorded for each experiment and data was analyzed in FlowJo™ (Treestar Inc.).
See WO 2014/127148 for descriptions of MIEP-IE2-reporter constructs. For example, LM2ig construct is depicted in FIG. 7 of WO 2014/127148.

[5] = test system: ARPE-19 cells stably transduced with LM2ig; experiment: Viability of ARPE-19 cells stably transduced with LM2ig; format: cell-based; conditions: FIG. 1, FIG. 2
Experimental: as §1, §2

SMILES: CN1CCN(c2ccc3[nH]c(-c4ccc5[nH]c(-c6ccc(O)cc6)nc5c4)nc3c2)CC1 [Hoechst 33258, 2′-(4-hydroxyphenyl)-5-(4-methyl-1-piperazinyl)-2,5′-bi-1H-benzimidazole trihydrochloride hydrate]
- virus fitness (TB40E replication levels) ([1]; MOI of 1, confluent epithelial cell monolayers): virus fitness loss
- cell to cell spread (IE2-YFP positive cells) ([1]; MOI of 1, images on day 5 post infection): inhibits cell to cell spread
- breaking of the IE2 negative feedback (geometric mean of GFP) [2]: specifically break the IE2 negative feedback
- IE2 levels (quantitative Western blot) (IE2): increase
- binding to the CRS sequence (EMSA) [3]: binding
- breaking of the IE2 negative feedback circuit ([4]; 24-28 hour exposure): breaks the IE2 negative feedback circuit
- quiescent MIEP-driven expression in a reporter cell line ([4]; ARPE-19 cells harboring LM2ig, 20 μM Hoechst 33258, FACS, FIG. 4 upper panel): activated quiescent MIEP-driven expression
- number of GFP-positive cells ([4]; ARPE-19 cells harboring LM2ig, Hoechst 33258 with or without VPA, FIG. 7): induced an increase
- mean fluorescence intensity (MFI) ([4]; ARPE-19 cells harboring LM2ig, Hoechst 33258 with or without VPA, FIG. 8): increased MFI
- production of IE2, as measured by GFP expression (GFP mean fluorescence intensity; GFP-MFI) ([4]; ARPE-19 cells stably transduced with LM2ig, FIG. 1, FIG. 2): increased production of IE2
- reactivation of the LM2ig minimal circuit ([4]; Hoechst 33258: after 24 hours): strongly reactivates
- breaking of the circuit and reactivation of the promoter from an off (silenced) state ([4]; long-term (e.g., 8-10 days) exposure): breaks the circuit and reactivates the promoter
- cell viability / cytotoxicity [5]: reduced cell viability
